Measurements taken from US20210395327A1, “Growth Hormone-Releasing Hormone Antagonists and Uses Thereof” (United States Government As Represented By The Department …, priority 2019, published 2021).
Entries after “also recorded” stand apart in the source; their conditions may differ. Non-standard residues stand in square brackets, D forms with d. Residues, ends and D or L forms follow the SMILES beside them. *: point of attachment. Phenylacetyl(2,3,4,5,6-F5) = O=C(Cc1c(F)c(F)c(F)c(F)c1F)*; Phe(F5) = N[C@@H](Cc1c(F)c(F)c(F)c(F)c1F)C(=O)O; hArg = N=C(N)NCCCC[C@H](N)C(=O)O; 12Ado = NCCCCCCCCCCCC(=O)O; Nle = CCCC[C@H](N)C(=O)O; Orn = NCCC[C@H](N)C(=O)O; Abu = CC[C@H](N)C(=O)O

Tests used:
HCC827 lung cancer cells = assay: In vitro cell viability, HCC827; assay type: cell-based, human; settings: for In vitro relative inhibitory potency in comparison to MIA-602, HCC827: Table 3B, 5 μM for 72 H, MIA-602 = 1
Summary of the method: (§1)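 Human tumour lines were exposed to GHRH antagonist at 1, 2.5 or 5 μM for 72 h with medium refreshed every 48 h, after 24 h in low-serum (0.5% FBS) medium. Cell viability (CellTiter 96) was expressed as inhibition relative to MIA602.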

[1] = system: GH release from rat pituitary cells; assay: Inhibition of GH release from rat pituitary cells in vitro (GH ELISA); assay type: cell-based; settings: for Relative GH release: analogs 20 nM, then with 1 nM GHRH(1-29)NH2 for 30 minutes, Control = 1.00
Experimental: In vitro assessment of the antagonistic activity of GHRH analogs. Rats were decapitated and pituitaries were collected in pre-warmed HBSS (Hanks' Balanced Salt Solution). Tissue was then cut into small pieces and digested in HBSS medium containing 3% BSA, 50 μg/ml gentamycin and 0.5% collagenase for 50 minutes at 37° C. Cells were further dispersed by pipetting and passed through a 100 μm cell strainer with the addition of DMEM containing 50 μg/ml gentamycin. 10% horse serum and 2.5% FBS (growth medium). Cells were harvested at 475×g for 2 minutes, resuspended in fresh growth medium and seeded onto poly-D-lysine-coated 24-well plates (7 pituitaries/plate). Cells were left to recover for 4 days. Growth medium was then replaced with serum-free DMEM for 4 hours and GHRH analogs (at concentration of 20 nM) were added in DMEM containing 0.1% BSA for 30 minutes. Cells were replenished with medium containing the same concentration of the analogs and 1 nM GHRH(1-29)NH2 for 30 minutes. Medium from this step was collected, centrifuged at 800 g for 3 minutes and GH concentration was determined by ELISA (ALPCO Diagnostics, Mill Valley, Calif.) according to the manufacturer's instruction.

[2] = system: CFPAC-1 pancreatic cancer cells; assay: In vitro cell viability, CFPAC-1; assay type: cell-based, human
Summary of the method: as §1

[3] = biological target: T1, membrane GHRH-receptors on human anterior pituitary cells (Homo sapiens, UniProt Q02643); assay: Receptor binding, displacement of 125I-[His1,Nle27]-hGH-RH(1-32)NH2 on human pituitary membranes
T1 construct: Human pituitary was purchased from the National Hormone and Peptide Program; tissue National Hormone and Peptide Program; host or cells: human pituitary (membrane fractions)
T1 sequence (Q02643 23-423): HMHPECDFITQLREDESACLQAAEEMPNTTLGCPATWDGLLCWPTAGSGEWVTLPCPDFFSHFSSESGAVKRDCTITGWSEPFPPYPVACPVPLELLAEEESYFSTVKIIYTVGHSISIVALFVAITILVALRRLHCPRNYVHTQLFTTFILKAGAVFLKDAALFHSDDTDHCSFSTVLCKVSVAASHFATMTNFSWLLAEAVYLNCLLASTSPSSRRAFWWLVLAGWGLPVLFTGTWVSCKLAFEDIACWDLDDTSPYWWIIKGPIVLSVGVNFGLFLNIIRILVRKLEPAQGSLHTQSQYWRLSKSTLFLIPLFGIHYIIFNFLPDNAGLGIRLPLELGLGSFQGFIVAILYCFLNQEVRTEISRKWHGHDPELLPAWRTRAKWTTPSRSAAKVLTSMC
Summary of the method: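 Membrane fractions from human pituitary; peptides displace 125I-[His1,Nle27]-hGH-RH(1-32)NH2. IC50 is the dose giving 50% inhibition of specific binding, from duplicate tubes. Relative affinity is the ratio of test IC50 to hGH-RH(1-29)NH2 IC50.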

[4] = antagonist 5 μM for 72 h, cell proliferation assay, MIA602 = 1

| IC50 ([3]; membrane receptors on human anterior pituitary cells, mean of two to three determinations, read-out: IC50) | Compound | In vitro relative inhibitory potency in comparison to MIA-602, HCC827 (HCC827 lung cancer cells) | relative inhibitory potency in comparison to MIA-602, Lung IICC827 (HCC827 lung cancer cells; [4]) | Relative GH release [1] | inhibitory effects on the release of GH, compared with MIA-602 (in words) ([1]; rat pituitary cells in vitro, 20 nM) | In vitro relative inhibitory potency in comparison to MIA-602, CFPAC-1 ([2]; Table 3B, 5 μM for 72 H, MIA-602 = 1) | relative inhibitory potency in comparison to MIA-602, Pancreatic CFPAC-1 [2, 4] | binding affinity to membrane receptors of human pituitary cells (in words) ([3]; competitive binding, human pituitary membrane fractions) |
| --- | --- | --- | --- | --- | --- | --- | --- | --- |
|  | CCCC[C@H](NC(=O)[C@@H](NC(=O)[C@H](CC(=O)O)NC(=O)[C@H](CCC(N)=O)NC(=O)[C@H](CC(C)C)NC(=O)[C@H](CC(C)C)NC(=O)[C@H](CCCCN)NC(=O)[C@H](CCCNC(=N)N)NC(=O)[C@H](C)NC(=O)[C@H](CO)NC(=O)[C@H](CC(C)C)NC(=O)[C@H](CCC(N)=O)NC(=O)[C@H](CC)NC(=O)[C@H](CC(C)C)NC(=O)[C@@H](NC(=O)[C@H](CCCCN)NC(=O)[C@H](CCCNC(=N)N)NC(=O)[C@H](Cc1ccc(OC)cc1)NC(=O)[C@H](CCCCNC(=N)N)NC(=O)[C@H](C)NC(=O)[C@@H](NC(=O)[C@H](Cc1c(F)c(F)c(F)c(F)c1F)NC(=O)[C@@H](NC(=O)[C@H](C)NC(=O)[C@H](CC(=O)O)NC(=O)[C@@H](CCCNC(=N)N)NC(=O)[C@H](Cc1ccc(O)cc1)NC(=O)CCCCCCCCCCCNC(=O)Cc1c(F)c(F)c(F)c(F)c1F)[C@@H](C)CC)[C@@H](C)O)C(C)C)[C@@H](C)CC)C(=O)N[C@H](CCCNC(=N)N)C(=O)N[C@@H](CCCCNC(=N)N)C(=O)NC [AVR-235] ({Phenylacetyl(2,3,4,5,6-F5)-12Ado}-Y[dR]DAI[Phe(F5)]TA[hArg]Y(Me)RKVL[Abu]QLSARKLLQDI[Nle][dR][hArg]-NHMe) | 1.08 | 1.506 | 0.60 ± 0.02 | higher inhibitory effects than MIA-602 | 1.497 | 1.399 |  |
| 0.15 nM | CCCC[C@H](NC(=O)[C@@H](NC(=O)[C@H](CC(=O)O)NC(=O)[C@H](CCC(N)=O)NC(=O)[C@H](CC(C)C)NC(=O)[C@H](CC(C)C)NC(=O)[C@H](CCCN)NC(=O)[C@H](Cc1c[nH]cn1)NC(=O)[C@H](C)NC(=O)[C@H](CO)NC(=O)[C@H](CC(C)C)NC(=O)[C@H](CCC(N)=O)NC(=O)[C@H](CC)NC(=O)[C@H](CC(C)C)NC(=O)[C@@H](NC(=O)[C@H](CCCN)NC(=O)[C@H](Cc1c[nH]cn1)NC(=O)[C@H](Cc1ccc(OC)cc1)NC(=O)[C@H](CCCCNC(=N)N)NC(=O)[C@H](C)NC(=O)[C@@H](NC(=O)[C@H](Cc1c(F)c(F)c(F)c(F)c1F)NC(=O)[C@@H](NC(=O)[C@H](C)NC(=O)[C@H](CC(=O)O)NC(=O)[C@@H](CCCNC(=N)N)NC(=O)[C@H](Cc1ccc(O)cc1)NC(=O)CCCCCCCCCCCNC(=O)Cc1c(F)c(F)c(F)c(F)c1F)[C@@H](C)CC)[C@@H](C)O)C(C)C)[C@@H](C)CC)C(=O)N[C@H](CCCNC(=N)N)C(=O)N[C@@H](CCCCNC(=N)N)C(=O)NCCCCCCCCCCCC(N)=O [AVR-553, 5FPhAC-Ada-Tyr-DArg-Asp-Ala-Ile-5FPhe-Thr-Ala-Har-Tyr(Me)-His-Orn-Val-Leu-Abu-Gln-Leu-Ser-Ala-His-Orn-Leu-Leu-Gln-Asp-Ile-Nle-DArg-Har-Ada-NH2] ({Phenylacetyl(2,3,4,5,6-F5)-12Ado}-Y[dR]DAI[Phe(F5)]TA[hArg]Y(Me)H[Orn]VL[Abu]QLSAH[Orn]LLQDI[Nle][dR][hArg][12Ado]-NH2) | 2.582 |  | 0.82 ± 0.04 |  |  |  | higher binding affinity in comparison to MIA-602; also recorded: highest binding affinities |
